Experimental data as given in publication PMC6874683, “Pyrrothiogatain acts as an inhibitor of GATA family proteins and inhibits Th2 cell differentiation in vitro” (Scientific Reports, 2019).
Values joined by “and” are separate entries in the source; they are usually repeats but may differ in a detail not shown here. Equal values may be shown once.

Legend:
[1] = target: T1, GATA3 (Homo sapiens, UniProt P23771); assay: AlphaScreen DNA-binding assay, GATA3 with GATA consensus DNA
T1 construct: we synthesized the recombinant full-length GATA3 protein with an N-terminal FLAG tag using the wheat cell-free system; made in house; host or cells: wheat cell-free protein synthesis system (WEPRO1240 kit)
T1 sequence (P23771 whole entry, species assumed): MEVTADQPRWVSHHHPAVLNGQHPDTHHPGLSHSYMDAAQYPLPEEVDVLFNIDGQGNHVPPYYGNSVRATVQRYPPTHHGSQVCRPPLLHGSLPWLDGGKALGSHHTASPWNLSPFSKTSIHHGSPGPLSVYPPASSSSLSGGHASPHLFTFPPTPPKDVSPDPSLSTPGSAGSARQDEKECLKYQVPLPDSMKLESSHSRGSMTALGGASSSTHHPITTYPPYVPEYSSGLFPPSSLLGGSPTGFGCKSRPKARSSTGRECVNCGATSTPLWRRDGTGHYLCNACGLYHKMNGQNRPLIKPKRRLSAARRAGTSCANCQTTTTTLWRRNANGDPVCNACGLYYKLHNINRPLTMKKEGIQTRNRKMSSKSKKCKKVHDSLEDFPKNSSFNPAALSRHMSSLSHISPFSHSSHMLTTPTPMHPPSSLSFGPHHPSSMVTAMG
Description: (§1) For the protein-DNA binding assay on a 384-well AlphaPlate (Perkin Elmer), 10 μL of bait protein mixture containing 1 µL FLAG-tagged protein in AlphaScreen Buffer (100 mM Tris-HCl (pH 8.0), 150 mM NaCl, 0.1% Tween 20, and 1 mg/mL BSA) and 5 µL biotinylated oligonucleotide (0–10 µM final concentration) in AlphaScreen Buffer were dispended into the AlphaPlate. Then, the plate was incubated at 26 °C for 1 h. After incubation, 10 μL of the detection mixture containing 0.4 µg/mL Anti-DYKDDDDK antibody (1E6, Wako), 0.1 μL streptavidin-conjugated AlphaScreen donor beads, and 0.1 μL protein A-conjugated AlphaScreen acceptor beads in AlphaScreen Buffer was mixed and incubated at 26 °C for 1 h, and then, the AlphaScreen signal was detected using an EnVision device with the AlphaScreen signal detection program (PerkinElmer).
(§2) For the AlphaScreen-based chemical library screening, we used a diverse set of 9,600 synthesized chemicals established by the Drug Discovery Initiative (The University of Tokyo, Tokyo, Japan). All chemical compounds (10 mM) were dissolved in DMSO, and were pre-dispensed into a 384-well Alphaplate (250 nL/well). […] The AlphaScreen signal was detected using an EnVision device with the AlphaScreen signal detection program (PerkinElmer). […]

[2] = target: T2, GATA5 (Homo sapiens, UniProt Q9BWX5); assay: AlphaScreen DNA-binding assay, GATA5; conditions: pyrrothiogatain 0 to 200 µM
T2 construct: we tried to synthesize their full-length proteins using the cell-free system; made in house; host or cells: wheat cell-free protein synthesis system (WEPRO1240 kit)
T2 sequence (Q9BWX5 whole entry, species assumed): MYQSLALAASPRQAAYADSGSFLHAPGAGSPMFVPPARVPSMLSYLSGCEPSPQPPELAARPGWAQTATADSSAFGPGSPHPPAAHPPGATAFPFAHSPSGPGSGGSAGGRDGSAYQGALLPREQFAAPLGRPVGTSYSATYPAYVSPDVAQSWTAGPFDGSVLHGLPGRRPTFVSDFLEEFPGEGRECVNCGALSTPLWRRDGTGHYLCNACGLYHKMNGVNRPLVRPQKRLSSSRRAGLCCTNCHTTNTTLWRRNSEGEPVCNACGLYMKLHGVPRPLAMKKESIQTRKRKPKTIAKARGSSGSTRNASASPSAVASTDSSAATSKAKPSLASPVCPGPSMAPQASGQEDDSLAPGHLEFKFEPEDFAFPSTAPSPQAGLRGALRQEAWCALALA
Description: as §1, §2

[3] = test system: cytokine production; assay: ELISA of cytokine production, total CD4+ T cells under IL-2 conditions; type: cell-based, mouse; conditions: 30 µM, five days
Description: C57BL/6 mice were purchased from Clea (Clea Japan, Inc., Tokyo, Japan). Total CD4^+ T cells isolated from mouse spleen were prepared using a FITC anti-mouse CD4 antibody (Cat#100510, RM4–5, BioLegend) and anti-FITC-microbeads (Cat#130-097-050, Miltenyi Biotec). Naive CD4^+ T cells (CD44^low, CD62L^high) were prepared using a MojoSort Mouse CD4 T cell Isolation Kit (Cat#480033), BioLegend). Biotinylated anti-CD44 (Cat#103004, IM7) and anti-CD25 antibodies (Cat#102004, PC61) were purchased from BioLegend. […]
The CD4^+ T cells cultured for five days were stimulated using an immobilized anti-TCR-β mAb (3 µg/mL, H57–597, BioLegend) for 16 h, and the culture supernatants were recovered. The amount of cytokines in the recovered supernatants was determined with ELISA using the following antibodies and reagents: anti-IL-4 mAb (Cat#554387, BD Biosciences), biotin-anti-IL-4 mAb (Cat#554390, BD Biosciences), anti-IL-5 mAb (Cat#554393, BD Biosciences), biotin-anti-IL-5 mAb (Cat#554397, BD Biosciences), anti-IFN-γ mAb (Cat#551216, BD Biosciences), biotin-anti-IFN-γ mAb (Cat#554410, BD Biosciences), anti-IL-2 mAb (Cat#554424, BD Biosciences), biotin-anti-IL-2 mAb (Cat#554426, BD Biosciences), streptavidin horseradish peroxidase (Cat#434323, Invitrogen), and TMB peroxidase EIA substrate kit (Cat#1721066, BioRad). […]

[4] = test system: cytokine, GATA3 and Tbx21 mRNA; assay: Quantitative RT-PCR, total CD4+ T cells under IL-2 conditions; type: cell-based, mouse; conditions: 30 µM, five days
Description: C57BL/6 mice were purchased from Clea (Clea Japan, Inc., Tokyo, Japan). Total CD4^+ T cells isolated from mouse spleen were prepared using a FITC anti-mouse CD4 antibody (Cat#100510, RM4–5, BioLegend) and anti-FITC-microbeads (Cat#130-097-050, Miltenyi Biotec). Naive CD4^+ T cells (CD44^low, CD62L^high) were prepared using a MojoSort Mouse CD4 T cell Isolation Kit (Cat#480033), BioLegend). Biotinylated anti-CD44 (Cat#103004, IM7) and anti-CD25 antibodies (Cat#102004, PC61) were purchased from BioLegend. CD4^+ T cells (7.5 × 10^5) were stimulated using immobilized anti-TCR-β mAb (3 µg/mL, H57–597, BioLegend) plus an anti-CD28 mAb (1.0 µg/mL, cat#40–0281, TONBO Biosciences) for 2 days, and then, the cells were further expanded under similar conditions for an additional 3 days. IL-2 conditions: IL-2 (10 ng/mL, Pepro Tech); Th2 conditions: IL-2 (10 ng/mL, Pepro Tech), IL-4 (1 ng/mL, Pepro Tech), and anti-IFN-γ mAb (2.5 µg/mL, cat#40–731, TONBO Biosciences). Th1 conditions: IL-2 (10 ng/mL, Pepro Tech), IL-12 (1 ng/mL, Pepro Tech), and anti-IL-4 mAb (2.5 µg/mL, cat#40–731, TONBO Biosciences). The cultured cells were subjected to intracellular staining, ELISA assay, and RT-PCR. All animal experiments received approval from the Ehime University Administrative Panel for Animal Care. All animal care was conducted in accordance with the guidelines of Ehime University.
Total RNA was isolated using the TRI Reagent (Molecular Research Center, Inc.). Reverse transcription and qRT-PCR were performed using the Transcriptor First Strand cDNA Synthesis Kit (Cat#04379012001, Roche) and FastStart Essential DNA Green Master (Cat#06402712001, Roche), according to the manufacturer’s protocols. qRT-PCR primers were used as follow; IL-4: 5′-GATCGGCATTTTCAACGAG-3′ (forward), 5′-[…]-3′ (reverse); IL-13: 5′-[…]-3′ (forward), 5′-[…]-3′ (reverse); IFN-γ: 5′-[…]-3′ (forward), 5′-[…]-3′ (reverse); IL-2: 5′-[…]-3′ (forward), 5′-[…]-3′ (reverse); Gata3: 5′-TTATCAAGCCCAAGCGAAG-3′ (forward), 5′-TGGTGGTGGTCTGACAGTT-3′ (reverse); and Tbx21: 5′-[…]-3′ (forward), 5′-[…]-3′ (reverse).
(C) Quantitative RT-PCR analysis of the pyrrothiogatain-treated Th2 cells shown in panel (A).

IC50 ([1]; AlphaScreen, pyrrothiogatain 0 to 200 µM): ~50 µM and 54.7 µM
Inhibition of GATA3–DNA binding in the second screen ([1]; second screen, 0 to 10 µM): specifically inhibited
IC50 [2]: ~50 µM and 49.5 µM
SMILES: Cc1ccc(C)n1-c1ccsc1C(=O)O [Pyrrothiogatain, 3-(2,5-dimethyl-1H-pyrrol-1-yl)thiophene-2-carboxylic acid]
Production of IFN-γ (ELISA) [3]: Increased
Production of IL-4, IL-5, IL-10, and IL-13 (ELISA) [3]: decreased
Expression of GATA3, mRNA level [4]: not influenced
Expression of Tbx21 [4]: increased
mRNA expression of IFN-γ (RT-qPCR) [4]: Increased
mRNA expression of IL-4, IL-5, IL-10, and IL-13 (RT-qPCR) [4]: decreased
